Test results reported in PubChem BioAssay AID248 (DTP/NCI, 2004).
Toxic doses and inconclusive results are not listed. No stated cut-off is given here; in the data, active means T/C of 150% or more; inactive means T/C below 125%.

Test system: L1210 leukemia ip in BDF1 mice, survival T/C
Assay: NCI In Vivo Anticancer Drug Screen. Data for tumor model L1210 Leukemia (intraperitoneal) in B6D2F1 (BDF1) mice
Conditions: endpoint: mean survival time, higher = longer survival
Outline: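 Antitumor effect is assessed in tumor-bearing animals. Survival in the compound arm is compared with a vehicle-dosed control arm and expressed as their quotient.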

[1] = dose: 25.0 mg/kg/injection, schedule: Q01DX009 (ip), vehicle: Klucel (hydroxypropylcellulose) (HPC)
[2] = dose: 50.0 mg/kg/injection, schedule: Q01DX009 (ip), vehicle: Klucel (hydroxypropylcellulose) (HPC)
[3] = dose: 100.0 mg/kg/injection, schedule: Q01DX009 (ip), vehicle: Klucel (hydroxypropylcellulose) (HPC)
[4] = dose: 100.0 mg/kg/injection, schedule: Q04DX002 (ip), vehicle: Klucel (hydroxypropylcellulose) (HPC)
[5] = dose: 200.0 mg/kg/injection, schedule: Q04DX002 (ip), vehicle: Klucel (hydroxypropylcellulose) (HPC)
[6] = dose: 100.0 mg/kg/injection, schedule: Q01DX001 (ip), vehicle: saline
[7] = dose: 200.0 mg/kg/injection, schedule: Q01DX001 (ip), vehicle: saline
[8] = dose: 400.0 mg/kg/injection, schedule: Q01DX001 (ip), vehicle: saline
[9] = dose: 100.0 mg/kg/injection, schedule: Q04DX002 (ip), vehicle: saline
[10] = dose: 200.0 mg/kg/injection, schedule: Q04DX002 (ip), vehicle: saline
[11] = dose: 400.0 mg/kg/injection, schedule: Q04DX002 (ip), vehicle: saline
[12] = dose: 100.0 mg/kg/injection, schedule: Q04DX002 (ip), vehicle: saline with Tween-80
[13] = dose: 200.0 mg/kg/injection, schedule: Q04DX002 (ip), vehicle: saline with Tween-80
[14] = dose: 400.0 mg/kg/injection, schedule: Q04DX002 (ip), vehicle: saline with Tween-80
[15] = dose: 200.0 mg/kg/injection, schedule: Q01DX009 (ip), vehicle: Klucel (hydroxypropylcellulose) (HPC)
[16] = dose: 400.0 mg/kg/injection, schedule: Q01DX009 (ip), vehicle: Klucel (hydroxypropylcellulose) (HPC)
[17] = dose: 25.0 mg/kg/injection, schedule: Q01DX001 (ip), vehicle: saline
[18] = dose: 50.0 mg/kg/injection, schedule: Q01DX001 (ip), vehicle: saline

Measured: T/C

Cc1ccc(C)c(N=Nc2ccc(O)cc2)c1
inactive: dose: 100.0 mg/kg/injection, schedule: Q01DX009 (ip), vehicle: saline with Tween-80 94 % of control | dose: 200.0 mg/kg/injection, schedule: Q01DX009 (ip), vehicle: saline with Tween-80 93 % of control

Cc1cc2c(cn1)C(=O)C=CC2=O
inactive: dose: 5.0 mg/kg/injection, schedule: Q01DX001 (ip), vehicle: carboxymethylcellulose (CMC) 94 % of control | dose: 10.0 mg/kg/injection, schedule: Q01DX001 (ip), vehicle: carboxymethylcellulose (CMC) 96 % of control

O=[N+]([O-])c1csc2ccccc12
inactive: dose: 12.5 mg/kg/injection, schedule: Q01DX009 (ip), vehicle: Klucel (hydroxypropylcellulose) (HPC) 97 % of control | [1] 90 % of control | [2] 90 % of control | [3] 105 % of control

CC(O)(c1ccncc1)c1cc2ccccc2n1S(=O)(=O)c1ccccc1 (stereo unspecified)
inactive: [4] 95 % of control | [5] 87 % of control

CC(=O)c1cc([N+](=O)[O-])ccc1O
inactive: [6] 90 % of control | [7] 97 % of control | [8] 90 % of control

C#CC(NC(C)(C)CC(C)(C)C)C(C)C (stereo unspecified)
inactive: [9] 109 % of control | [10] 109 % of control | [11] 100 % of control

O=c1ccnc(-c2ccccc2)[nH]1
inactive: [4] 119 % of control | [5] 119 % of control | dose: 400.0 mg/kg/injection, schedule: Q04DX002 (ip), vehicle: Klucel (hydroxypropylcellulose) (HPC) 114 % of control

COc1ccc(C2NC(=O)CCC2[N+](=O)[O-])cc1OC (stereo unspecified)
inactive: [12] 91 % of control | [13] 91 % of control | [14] 94 % of control

Clc1ccc(Cl)c(CBr)c1Cl
inactive: dose: 25.0 mg/kg/injection, schedule: Q04DX003 (ip), vehicle: Klucel (hydroxypropylcellulose) (HPC) 98 % of control | [2] 98 % of control | dose: 50.0 mg/kg/injection, schedule: Q04DX003 (ip), vehicle: Klucel (hydroxypropylcellulose) (HPC) 101 % of control | [3] 88 % of control | dose: 100.0 mg/kg/injection, schedule: Q04DX003 (ip), vehicle: Klucel (hydroxypropylcellulose) (HPC) 101 % of control | dose: 100.0 mg/kg/injection, schedule: Q04DX003 (ip), vehicle: saline with Tween-80 100 % of control | [15] 90 % of control

COc1ccccc1NC(=O)c1ccccc1F
inactive: [3] 95 % of control | [15] 95 % of control | [16] 101 % of control

COC1OC(CO)C(O)C1n1cnc2c(N)ncnc21 (stereo unspecified)
inactive: [17] 90 % of control | [18] 106 % of control | [6] 103 % of control

CC(C(OC(=O)Nc1ccc(Cl)c(Cl)c1)c1ccc(F)cc1)C(O)(C(F)(F)F)C(F)(F)F (stereo unspecified)
inactive: [3] 93 % of control | [15] 93 % of control | [16] 91 % of control

C=C1CC[N+]2(CC(=O)c3ccc(Br)cc3)CCCC12 (stereo unspecified)
inactive: dose: 12.5 mg/kg/injection, schedule: Q01DX001 (ip), vehicle: saline 92 % of control | [17] 92 % of control | [18] 101 % of control

O=C(Nc1ccccc1F)N(Cc1ccccc1)Cc1ccccc1
inactive: [2] 96 % of control | [3] 104 % of control | [15] 101 % of control

O=C(CCc1ccccc1)c1ccccc1
inactive: [12] 97 % of control | [13] 97 % of control | [14] 90 % of control

N#Cc1cn(C2OC(CO)C(O)C2O)c2ncnc(N)c12 (stereo unspecified)
inactive: dose: 0.04 mg/kg/injection, schedule: Q01DX009 (ip), vehicle: saline 119 % of control | dose: 0.08 mg/kg/injection, schedule: Q01DX005 (ip), vehicle: saline 86 % of control | dose: 0.09 mg/kg/injection, schedule: Q01DX009 (ip), vehicle: saline 107 % of control | dose: 0.12 mg/kg/injection, schedule: Q01DX005 (ip), vehicle: saline 96 % of control

O=c1ccc2cc3cc(I)c(O)c(I)c3oc-2c1I
inactive: [3] 101 % of control | [15] 99 % of control

[NH-]C(CCC(N)=O)C(=O)O.[NH-]C(CCC(N)=O)C(=O)O.[Pd+2] (stereo unspecified)
inactive: [9] 102 % of control | dose: 100.0 mg/kg/injection, schedule: Q04DX003 (ip), vehicle: saline 98 % of control | [10] 102 % of control | dose: 200.0 mg/kg/injection, schedule: Q04DX003 (ip), vehicle: saline 92 % of control | [11] 102 % of control

COc1cc(OCc2ccccc2)c(CC(=O)O)c([N+](=O)[O-])c1
inactive: dose: 100.0 mg/kg/injection, schedule: Q01DX001 (ip), vehicle: other 104 % of control | dose: 100.0 mg/kg/injection, schedule: Q01DX009 (ip), vehicle: other 93 % of control | dose: 100.0 mg/kg/injection, schedule: Q04DX003 (ip), vehicle: other 100 % of control | dose: 200.0 mg/kg/injection, schedule: Q01DX001 (ip), vehicle: other 100 % of control | dose: 200.0 mg/kg/injection, schedule: Q01DX009 (ip), vehicle: other 106 % of control | dose: 200.0 mg/kg/injection, schedule: Q04DX003 (ip), vehicle: other 94 % of control | dose: 400.0 mg/kg/injection, schedule: Q01DX001 (ip), vehicle: other 94 % of control | dose: 400.0 mg/kg/injection, schedule: Q01DX009 (ip), vehicle: other 103 % of control | dose: 400.0 mg/kg/injection, schedule: Q04DX003 (ip), vehicle: other 94 % of control

CCN(Cc1cc(OC)c(OC)c(OC)c1)C1CCCCC1
inactive: dose: 50.0 mg/kg/injection, schedule: Q01DX009 (ip), vehicle: saline 113 % of control | dose: 100.0 mg/kg/injection, schedule: Q01DX009 (ip), vehicle: saline 98 % of control

Nc1ccn(CCCOc2ccccc2)c(=O)n1
inactive: dose: 100.0 mg/kg/injection, schedule: Q01DX001 (ip), vehicle: saline with Tween-80 97 % of control | dose: 200.0 mg/kg/injection, schedule: Q01DX001 (ip), vehicle: saline with Tween-80 96 % of control | dose: 400.0 mg/kg/injection, schedule: Q01DX001 (ip), vehicle: saline with Tween-80 100 % of control

NC(N)=N/N=C/c1ccc(Cl)cc1Cl
inactive: dose: 30.0 mg/kg/injection, schedule: Q01DX010 (oral), vehicle: saline 102 % of control | dose: 44.0 mg/kg/injection, schedule: Q01DX010 (oral), vehicle: saline 100 % of control | [18] 100 % of control | dose: 63.0 mg/kg/injection, schedule: Q01DX Z (ip), vehicle: saline 101 % of control | dose: 66.0 mg/kg/injection, schedule: Q01DX010 (oral), vehicle: saline 104 % of control | dose: 99.0 mg/kg/injection, schedule: Q01DX010 (oral), vehicle: saline 98 % of control | [6] 106 % of control | [7] 108 % of control

NC(=S)N/N=C/c1ccc(Cl)cc1
inactive: [1] 103 % of control | [2] 101 % of control

N=C(CC(=O)Nc1ccccc1)c1ccccc1
inactive: [18] 101 % of control | [6] 96 % of control | [7] 102 % of control | [8] 101 % of control
